Literature values in US20190008906A1, “COMPOSITIONS FOR MANAGEMENT OF WOUNDS, SKIN DISEASES, DEHYDRATION, CHRONIC DISEASES, AND RESPIRATORY DISEASES” (priority 2017, published 2019).

Conditions: laboratory animals, mainly when given orally

For `CC1=CC(=O)C(C(C)C)=CC1=O` [thymoquinone], the “safety in toxicity studies” value is given as “quite safe”.
